Results on four compounds are retold here after PMC10349142, “Minimal mechanistic component of HbYX-dependent proteasome activation that reverses impairment by neurodegenerative-associated oligomers” (Communications Biology, 2023).

In test [1] the target is T1, Mammalian 20S proteasome (M20S).
T1 construct: gene PSMA5; native 20S core particle purified from bovine liver; alpha7-beta7-beta7-alpha7; with Proteasome subunit beta type-1; Proteasome subunit beta type-2; Proteasome subunit beta type-3; Proteasome subunit beta type-4; Proteasome subunit beta type-5; Proteasome subunit beta type-6; Proteasome subunit beta type-7
The test can be described thus: fluorogenic peptide hydrolysis, activator saturation curve. The test is classed as biochemical, Bos taurus. The text has this:
fluorogenic peptide hydrolysis, activator saturation curve on Mammalian 20S proteasome (M20S)

For test [2] the target is unchanged. The test can be described thus: fluorogenic peptide hydrolysis, activator saturation curve (Hill fit). In kind it is biochemical, Bos taurus. Conditions: activation (gate opening); nLPnLD-AMC substrate; 0.5 nM 20S; pH 7.5; 37 °C; 2% DMSO; allosteric, alpha intersubunit pockets; read-out: Kobs. From the text: fluorogenic peptide hydrolysis, activator saturation curve (Hill fit) on Mammalian 20S proteasome (M20S)

Test [3] addresses T2, T. acidophilum 20S proteasome (T20S) (Thermoplasma acidophilum, UniProt P25156).
T2 construct: gene psmA; recombinant 20S core particle; 8xHis tag on C-terminus of beta subunit; with Proteasome subunit beta
The test can be described thus: LFP nonapeptide hydrolysis, dose response. The test is classed as biochemical. Conditions: activation (gate opening); 7 nM T20S; LFP substrate; pH 7.5; 45 °C; 2% DMSO; allosteric, alpha intersubunit pockets.

Test [4] deals with T3, T. acidophilum 20S proteasome (T20S) (Thermoplasma acidophilum, UniProt P25156, K66A).
T3 construct: gene psmA; recombinant 20S core particle; 8xHis tag on C-terminus of beta subunit; with Proteasome subunit beta
T3 sequence (P25156 whole entry K66A): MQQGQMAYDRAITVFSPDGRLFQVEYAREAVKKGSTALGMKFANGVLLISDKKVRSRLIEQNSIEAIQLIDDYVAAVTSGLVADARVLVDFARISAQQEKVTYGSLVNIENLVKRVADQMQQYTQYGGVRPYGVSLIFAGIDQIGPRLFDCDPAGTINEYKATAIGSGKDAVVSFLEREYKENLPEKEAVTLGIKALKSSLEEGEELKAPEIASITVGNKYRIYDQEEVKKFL
T3 sequence (P28061 9-211, further chain): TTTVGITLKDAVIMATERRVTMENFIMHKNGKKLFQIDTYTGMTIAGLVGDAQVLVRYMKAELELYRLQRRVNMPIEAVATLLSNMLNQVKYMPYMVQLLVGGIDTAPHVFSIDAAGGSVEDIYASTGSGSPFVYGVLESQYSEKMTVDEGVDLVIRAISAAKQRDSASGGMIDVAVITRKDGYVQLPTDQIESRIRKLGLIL
The test can be described thus: LFP nonapeptide hydrolysis. Conditions: 7 nM T20S; LFP substrate; pH 7.5; 45 °C; 2% DMSO. In kind it is biochemical.

The target of test [5] is T4, T. acidophilum 20S proteasome (T20S) (Thermoplasma acidophilum, UniProt P25156, DEL2-12).
T4 construct: gene psmA; recombinant 20S core particle; 8xHis tag on C-terminus of beta subunit; with Proteasome subunit beta
T4 sequence (P25156 other isoform, or with tags, fused parts or gaps DEL2-12): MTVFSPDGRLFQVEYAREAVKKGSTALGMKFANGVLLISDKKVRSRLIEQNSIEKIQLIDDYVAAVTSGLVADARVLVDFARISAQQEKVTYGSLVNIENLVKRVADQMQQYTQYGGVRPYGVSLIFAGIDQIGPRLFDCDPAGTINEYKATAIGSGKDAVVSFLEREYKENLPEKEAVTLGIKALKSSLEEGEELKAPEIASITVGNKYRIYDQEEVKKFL
T4 sequence (P28061 9-211, stated change not applied, further chain): as the sequence (P28061 9-211, further chain) above
The test can be described thus: LFP nonapeptide hydrolysis. Conditions: 7 nM T20S; LFP substrate; pH 7.5; 45 °C; 2% DMSO. In kind it is biochemical.

The mark [6] stands for this setting: activation; pH 7.5; 37 °C; 2% DMSO; site unknown; read-out: Kobs.

The structures appear in SMILES notation.

T2 sequence (P28061 9-211, stated change not applied): as the sequence (P28061 9-211, further chain) above
T2 sequence (P25156 whole entry, stated change not applied): as the sequence (P25156 whole entry K66A) above, with A66K counted along it

In the case of `CCCCC/C=C\C/C=C\C/C=C\C/C=C\CCCC(=O)Nc1ccc(O)cc1` [AM-404], in test [1] (read-out: Kobs; activation; pH 7.5; 37 °C; 2% DMSO; site unknown), the EC50 stood at 12.1 µM.

Regarding `O=C1NCN(c2ccccc2)C12CCN(CCCC(c1ccc(F)cc1)c1ccc(F)cc1)CC2` [Fluspirilene], the EC50 in test [1] (setting [6]) was found to be 2.7 µM.

On to `CCOC(=O)[C@]1(c2ccccc2)N=C(c2ccc(OC)cc2)N(Cc2ccccc2)[C@@H]1c1ccc(NCc2ccccc2)cc1` [TCH-165], for which the EC50 in test [1] (setting [6]) was 0.8 µM.

Turning to `C[C@H](NC(=O)[C@H](Cc1ccc(O)cc1)NC(=O)OCc1ccccc1)C(=O)O` [ZYA], the EC50 in test [2] was determined as 970 µM. For the same compound, the affinity entry in test [3] is listed as “highly similar to its affinity for the T20S (Fig. 2b)”. Moreover, the “no activation at 2.5 mM” value in test [4] is reported as “it could not stimulate gate-opening in T20S-K66A to any extent (Fig. 2d)”; in test [5], “ZYA did not stimulate the activity of αΔN-T20S to any extent (Fig. 2e)”.
